Where “and” joins values, the source holds several entries; their conditions need not be identical. Identical values can stand only once. Like-named read-outs stand apart in the source and are kept apart here.
Assays:
Aβ40 = test: In vitro BACE cell-based assay (Aβ40 sandwich ELISA, cells stably expressing APP)
Experimental: In Vitro BACE Cell-Based Assay […] Cells stably expressing Amyloid Precursor Protein (APP) were plated at a density of 40K cells/well in 96 well plates (Costar). The cells were cultivated for 24 hours at 37° C. and 5% CO2 in DMEM supplemented with 10% FBS. The test compounds were then added to cells in 10-point dose response concentrations with the starting concentration being either 100 μM or 10 μM. The compounds were diluted from stock solutions in DMSO and the final DMSO concentration of the test compounds on cells was 0.1%. […] The IC50 of the compound was calculated from the percent of control or percent inhibition of Aβ40 as a function of the concentration of the test compound. The sandwich ELISA to detect Aβ40 was performed in 96 well microtiter plates, which were pre-treated with goat anti-rabbit IgG (Pierce). […] The optimal concentration for the pAb40 antibody was 3 μg/ml in Superblock/TBS (Pierce) that was supplemented with 0.05% Tween 20 (Sigma). […] Cellular supernatants were incubated with the capture antibody for 3 h at 4° C., followed by 3 wash steps in TBS-tween (0.05%). The detecting antibody incubation was for 2 h at 4° C., again followed by the wash steps as described previously. The final readout of the ELISA is Time-Resolved Fluorescence (counts per minute) using Delfia reagents Streptavidin-Europium and Enhancement solutions (Perkin Elmer) and the Victor 2 multilabel counter (Perkin Elmer).

BACE = BACE (Homo sapiens, UniProt P56817); test: In vitro enzymatic BACE FRET assay; type: biochemical; settings: average IC50, enzyme assay; read-out: BACE 1 FRET assay
Experimental: In Vitro Enzymatic BACE FRET (Fluorescence Resonance Energy Transfer) Assay (Enzyme Assay Data in the Example Table I) The assay buffer used in this screen is 0.05 M acetate, pH 4.2, 10% DMSO final, 100 uM genapol (which is a nonionic detergent, below its Critical Micelle Concentration). The beta secretase enzyme (0.2 nM) is pre-incubated for one hour with inhibitors, typically in about 1 uL of DMSO according to a serial dilution, are added thereto. This assay is effectively started by the addition of FRET substrate (50 nM) and the combination is incubated for one hour. The FRET assay is terminated with by addition of Tris buffer, which raises the pH to neutrality, and the fluorescence is determined. The FRET substrate is a peptide with commercially available fluorophore and quencher, on opposite sides of the BACE cleavage site. Proteolytic cleavage of the FRET substrate releases quenching of fluorescence (excitation 488 nm and emission […]).

[1] = Homo sapiens, HEK293, average IC50, read-out: HEK cell assay
[2] = Homo sapiens, HEK293, average IC50, cell assay, HEK cells

BACE, sequence (P56817 46-501, species assumed): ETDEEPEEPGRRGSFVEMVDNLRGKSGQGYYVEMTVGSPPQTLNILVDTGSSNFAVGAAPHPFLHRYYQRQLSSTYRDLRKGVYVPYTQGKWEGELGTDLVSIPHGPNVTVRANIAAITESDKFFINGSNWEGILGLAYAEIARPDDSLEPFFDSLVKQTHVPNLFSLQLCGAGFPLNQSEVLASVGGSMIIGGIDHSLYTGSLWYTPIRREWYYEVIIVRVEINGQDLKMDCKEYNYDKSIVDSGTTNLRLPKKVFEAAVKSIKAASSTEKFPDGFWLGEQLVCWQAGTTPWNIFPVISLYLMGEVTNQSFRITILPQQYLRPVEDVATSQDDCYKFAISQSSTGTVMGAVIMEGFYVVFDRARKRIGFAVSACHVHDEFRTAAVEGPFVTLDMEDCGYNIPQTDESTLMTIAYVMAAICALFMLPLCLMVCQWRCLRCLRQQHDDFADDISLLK

With CC(C)(C)C#Cc1ccc2c(c1)[C@@]1(COCC(N)=N1)c1cc(C#CC(C)(C)C)cnc1O2 [Example 53, (S)-3,7-bis(3,3-dimethylbut-1-ynyl)-2′,6′-dihydrospiro[chromeno[2,3-b]pyridine-5,3′-[1,4]oxazin]-5′-amine] the IC50 (Aβ40; [1]) was 25.1 nM and the IC50 (BACE) was 5.4 nM.
In the case of NC1=N[C@@]2(COC1)c1cc(-c3cccnc3F)ccc1Oc1c2cc(N2CCOCC2)nc1F [Example 58, (S)-1-fluoro-7-(2-fluoropyridin-3-yl)-3-morpholino-2′,6′-dihydrospiro[chromeno[2,3-c]pyridine-5,3′-[1,4]oxazin]-5′-amine 2,2,2-trifluoroacetate], the IC50 (Aβ40; [1]) is reported as 0.7 nM and the IC50 (BACE) is reported as 0.5 nM.
Compound CC(C)(C)COc1cc2c(c(F)n1)Oc1ccc(-c3cccnc3F)cc1[C@]21COCC(N)=N1 [Example 59B, (R)-1-fluoro-7-(2-fluoropyridin-3-yl)-3-(neopentyloxy)-2′,6′-dihydrospiro[chromeno[2,3-c]pyridine-5,3′-[1,4]oxazin]-5′-amine] has an IC50 (Aβ40; [1]) of 370 nM and an IC50 (BACE) of 84.9 nM.
With CC(C)(C)COc1cnc2c(c1)[C@]1(CCOC(N)=N1)c1cc(-c3cccnc3F)ccc1O2 [Example 62, (S)-7-(2-fluoropyridin-3-yl)-3-(neopentyloxy)-5′,6′-dihydrospiro[chromeno[2,3-b]pyridine-5,4′-[1,3]oxazin]-2′-amine] the IC50 (Aβ40; [1]) was 4.8 nM and the IC50 (BACE) was 2.5 nM.
Compound CC#Cc1cncc(-c2ccc3c(c2)[C@@]2(COCC(N)=N2)c2cc(C4=CCCOC4)cc(F)c2O3)c1 [Example 66, (S)-2′-(5,6-dihydro-2H-pyran-3-yl)-4′-fluoro-7′-(5-(prop-1-ynyl)pyridin-3-yl)-2,6-dihydrospiro[[1,4]oxazine-3,9′-xanthen]-5-amine] has an IC50 (Aβ40; [2]) of 1.5 nM and an IC50 (BACE) of 0.5 nM.
With CC(C)(C)COc1ccc2c(c1)[C@]1(COCC(N)=N1)c1cc(-c3cccnc3F)ccc1O2 [Example 67, (3S)-2′-(2,2-dimethylpropoxy)-7′-(2-fluoro-3-pyridinyl)-6H-spiro[1,4-oxazine-3,9′-xanthen]-5-amine] the IC50 (Aβ40; [2]) was 15.5 nM, the IC50 (Aβ40; [1]) was 13.1 nM and the IC50 (BACE) was 2 nM and 0.7 nM.
Work on NC1=N[C@@]2(COC1)c1cc(-c3cccnc3F)ccc1Oc1ncc(N3CC[C@@H](F)C3)cc12 [Example 68, (S)-7-(2-fluoropyridin-3-yl)-3-((R)-3-fluoropyrrolidin-1-yl)-2′,6′-dihydrospiro[chromeno[2,3-b]pyridine-5,3′-[1,4]oxazin]-5′-amine] yielded an IC50 (Aβ40; [2]) of 1.2 nM and an IC50 (BACE) of 1.4 nM.
For CC(C)(F)COc1cc(F)c2c(c1)[C@]1(CCSC(N)=N1)c1cc(-c3cccnc3F)ccc1O2 [Example 204, (S)-4′-fluoro-2′-(2-fluoro-2-methylpropoxy)-7′-(2-fluoropyridin-3-yl)-5,6-dihydrospiro[[1,3]thiazine-4,9′-xanthen]-2-amine], the IC50 (Aβ40; [1]) was 11.2 nM and the IC50 (BACE) was 2.8 nM.
Compound NC1=N[C@@]2(CCO1)c1cc(-c3cccnc3F)ccc1Oc1c2cc(-c2cccnc2)nc1F [Example 241, (S)-1-fluoro-7-(2-fluoropyridin-3-yl)-3-(pyridin-3-yl)-5′,6′-dihydrospiro[chromeno[2,3-c]pyridine-5,4′-[1,3]oxazin]-2′-amine] has an IC50 (Aβ40; [1]) of 0.9 nM and an IC50 (BACE) of 0.6 nM.
Compound NC1=N[C@]2(COC1)c1cc(-c3cccnc3F)ccc1Oc1cnc(-c3ccnc(F)c3)cc12 [compound 70] has an IC50 (Aβ40; [2]) of 268 nM and an IC50 (BACE) of 52.4 nM.
NC1=N[C@@]2(COC1)c1cc(-c3cccnc3F)ccc1Oc1cnc(C3=CCOCC3)cc12 [compound 71] gave an IC50 (Aβ40; [2]) of 1.2 nM and an IC50 (BACE) of 0.4 nM.
In the case of CC#Cc1cncc(-c2ccc3c(c2)[C@@]2(COCC(N)=N2)c2cc(-c4ccnc(F)c4)ncc2O3)c1 [compound 75], the IC50 (Aβ40; [2]) is reported as 2.8 nM and the IC50 (BACE) is reported as 0.5 nM.
NC1=N[C@@]2(COC1)c1cc(-c3cncnc3)ccc1Oc1cnc(-c3ccnc(F)c3)cc12 [compound 78] showed an IC50 (Aβ40; [2]) of 1.1 nM and an IC50 (BACE) of 0.5 nM.
In the case of NC1=N[C@@]2(COC1)c1cc(-c3cncnc3)ccc1Oc1cnc(-c3ccc(F)c(F)c3)cc12 [compound 79], the IC50 (Aβ40; [2]) is reported as 0.8 nM and the IC50 (BACE) is reported as 0.3 nM.
NC1=N[C@@]2(COC1)c1cc(-c3cccnc3F)ccc1Oc1cnc([C@H]3CCCOC3)cc12 [compound 80] gave an IC50 (Aβ40; [2]) of 5.8 nM and an IC50 (BACE) of 3.9 nM.
NC1=N[C@@]2(COC1)c1cc(-c3cccnc3F)ccc1Oc1cnc([C@@H]3CCCOC3)cc12 [compound 81] showed an IC50 (Aβ40; [2]) of 4.1 nM and an IC50 (BACE) of 3.7 nM.
For CC1(COc2cc(F)c3c(c2)[C@@]2(COCC(N)=N2)c2cc(-c4cccnc4F)ccc2O3)COC1 [compound 82], the IC50 (Aβ40; [2]) was 121 nM and the IC50 (BACE) was 43 nM.
In the case of CC1(COc2cc(F)c3c(c2)[C@]2(COCC(N)=N2)c2cc(-c4cccnc4F)ccc2O3)COC1 [compound 83], the IC50 (Aβ40; [2]) is reported as 0.4 nM and the IC50 (BACE) is reported as 0.4 nM.
Work on NC1=N[C@@]2(COC1)c1cc(-c3cccnc3F)ccc1Oc1c(F)cc(N3CC[C@@H](F)C3)cc12 [compound 85] yielded an IC50 (Aβ40; [2]) of 101 nM and an IC50 (BACE) of 39.7 nM.
CC1(C#Cc2cnc3c(c2)[C@]2(COCC(N)=N2)c2cc(-c4cccnc4F)ccc2O3)COC1 [compound 87] gave an IC50 (Aβ40; [2]) of 1.3 nM and an IC50 (BACE) of 2 nM.
In the case of CC1(C#Cc2cnc3c(c2)[C@@]2(COCC(N)=N2)c2cc(-c4cccnc4F)ccc2O3)COC1 [compound 88], the IC50 (Aβ40; [2]) is reported as 198 nM and the IC50 (BACE) is reported as 332 nM.
For NC1=N[C@@]2(COC1)c1cc(-c3cc(Cl)ccc3F)ccc1Oc1ncc(N3CC[C@@H](F)C3)cc12 [compound 92], the IC50 (Aβ40; [2]) was 1.9 nM and the IC50 (BACE) was 0.6 nM.
NC1=N[C@@]2(COC1)c1cc(-c3cc(Cl)ccc3F)ccc1Oc1ncc(N3CCOCC3)cc12 [compound 93] showed an IC50 (Aβ40; [2]) of 3.9 nM and an IC50 (BACE) of 0.7 nM.
NC1=N[C@@]2(COC1)c1cc(-c3cc(Cl)ccc3F)ccc1Oc1ncc(N3CC4CCC(C3)O4)cc12 [compound 94] was tested, and the IC50 (Aβ40; [2]) was 1.3 nM and the IC50 (BACE) was 1.3 nM.
Compound CC1(C#Cc2cnc3c(c2)[C@]2(COCC(N)=N2)c2cc(-c4cc(Cl)ccc4F)ccc2O3)COC1 [compound 95] has an IC50 (Aβ40; [2]) of 1.2 nM and an IC50 (BACE) of 0.5 nM.
CC(C)(C)C#Cc1cnc2c(c1)[C@]1(COCC(N)=N1)c1cc(-c3cncnc3)c(F)cc1O2 [compound 96] gave an IC50 (Aβ40; [2]) of 0.6 nM and an IC50 (BACE) of 1.2 nM.
CC(C)(C)C#Cc1cnc2c(c1)[C@@]1(COCC(N)=N1)c1cc(-c3cncnc3)c(F)cc1O2 [compound 97] showed an IC50 (Aβ40; [2]) of 273 nM and an IC50 (BACE) of 419 nM.
NC1=NC2(CCS1)c1cc(-c3cncnc3)ccc1Oc1ccc(-c3cncnc3)cc12 [compound 98] gave an IC50 (Aβ40; [2]) of 635 nM and an IC50 (BACE) of 257 nM.
NC1=NC2(CCS1)c1cc(-c3cccnc3)ccc1Oc1ccc(-c3cccnc3)cc12 [compound 99] was tested, and the IC50 (Aβ40; [2]) was 118 nM and the IC50 (BACE) was 81.8 nM.
NC1=N[C@]2(CCO1)c1cc(-c3cccnc3F)ccc1Oc1cnc(-c3cccnc3F)cc12 [compound 100] was tested, and the IC50 (Aβ40; average IC50, cell assay, HEK cells) was 184 nM and the IC50 (BACE) was 49.6 nM.
NC1=NC2(CCO1)c1cc(-c3cccnc3F)ccc1Oc1c2cc(-c2cccnc2F)nc1F (centres unmarked) [compound 101] was tested, and the IC50 (Aβ40; [2]) was 45.9 nM and the IC50 (BACE) was 14.6 nM.
Work on NC1=N[C@]2(CCO1)c1cc(-c3cccnc3F)ccc1Oc1c2cc(-c2cccnc2F)nc1F [compound 104] yielded an IC50 (Aβ40; [2]) of 1900 nM and an IC50 (BACE) of 1740 nM.
NC1=N[C@@]2(CCO1)c1cc(-c3cccnc3F)ccc1Oc1c2cc(-c2cccnc2F)nc1F [compound 105] showed an IC50 (Aβ40; [2]) of 24.2 nM and an IC50 (BACE) of 20.6 nM.
Compound NC1=N[C@]2(CCO1)c1cc(-c3cccnc3F)ccc1Oc1c2cc(-c2ccnc(F)c2)nc1F [compound 106] has an IC50 (Aβ40; [2]) of 2640 nM and an IC50 (BACE) of 1740 nM.
For NC1=N[C@@]2(CCO1)c1cc(-c3cccnc3F)ccc1Oc1c2cc(C2=CCOCC2)nc1F [compound 108], the IC50 (Aβ40; [2]) was 0.6 nM and the IC50 (BACE) was 0.6 nM.
NC1=N[C@]2(CCO1)c1cc(-c3cccnc3F)ccc1Oc1cnc(C3=CCOCC3)cc12 [compound 109] gave an IC50 (Aβ40; [2]) of 579 nM and an IC50 (BACE) of 2820 nM.
For NC1=N[C@@]2(COC1)c1cc(-c3cncc(F)c3)ccc1Oc1cnc(-c3cncc(F)c3)cc12 [compound 112], the IC50 (Aβ40; [2]) was 1.5 nM and the IC50 (BACE) was 0.5 nM.
For NC1=N[C@@]2(COC1)c1cc(-c3cncc(F)c3)ccc1Oc1cnc(-c3ccnc(F)c3)cc12 [compound 113], the IC50 (Aβ40; [2]) was 1 nM and the IC50 (BACE) was 0.5 nM.
Work on NC1=N[C@@]2(COC1)c1cc(-c3cccnc3)ccc1Oc1cnc(-c3ccnc(F)c3)cc12 [compound 116] yielded an IC50 (Aβ40; [2]) of 0.8 nM and an IC50 (BACE) of 0.6 nM.
With NC1=N[C@@]2(COC1)c1cc(-c3cnccc3F)ccc1Oc1cnc(-c3ccc(F)c(F)c3)cc12 [compound 117] the IC50 (Aβ40; [2]) was 1.6 nM and the IC50 (BACE) was 0.3 nM.
NC1=N[C@@]2(COC1)c1cc(-c3cnccc3F)ccc1Oc1cnc(-c3ccnc(F)c3)cc12 [compound 118] gave an IC50 (Aβ40; [2]) of 0.6 nM and an IC50 (BACE) of 0.4 nM.

Source: patent publication US9012446B2, “Amino-oxazines and amino-dihydrothiazine compounds as beta-secretase modulators and methods of use” (Amgen Inc., priority 2010, dated 2015)
